# Source: US20180028627A1, “TREATMENT VACCINE FOR PROSTATE CANCER” (Bioventures, LLC, priority 2015, published 2018)
# Residues, ends and D or L forms follow the SMILES beside them.
# Legend:
# [1] = PSA peptide solubility testing (turbidity); conditions: for Solubility, peptides tested individually: pH 4 or pH 5 with succinate (10 mM) or glutamate (10 mM)
# [2] = tested on: CD3 T-cells co-cultured with autologous LCs; assay: T-cell proliferation induced by treated LCs, alamarBlue; type: cell-based, human
molecule,measurement,setting,value
"CC[C@H](C)[C@H](NC(=O)[C@H](Cc1c[nH]c2ccccc12)NC(=O)[C@H](CCCCN)NC(=O)[C@H](CCCNC(=N)N)NC(=O)[C@H](Cc1ccc(O)cc1)NC(=O)[C@H](Cc1c[nH]cn1)NC(=O)[C@@H](NC(=O)[C@@H](NC(=O)[C@H](CCCCN)NC(=O)[C@@H](NC(=O)[C@H](Cc1ccc(O)cc1)NC(=O)[C@H](CC(C)C)NC(=O)[C@H](CO)NC(C)=O)[C@@H](C)O)C(C)C)C(C)C)C(=O)N[C@@H](CCCCN)C(=O)N[C@@H](CC(=O)O)C(=O)N[C@H](C(=O)N[C@H](C(=O)N[C@H](C(=O)N[C@@H](C)C(=O)N[C@@H](CC(N)=O)C(=O)N1CCC[C@H]1C(N)=O)C(C)C)[C@@H](C)CC)[C@@H](C)O [PSA 241-261, SLYTKVVHYR KWIKDTIVAN P] (Ac-SLYTKVVHYRKWIKDTIVANP-NH2; N-terminus and C-terminus assumed)","Solubility, peptides tested individually",[1],soluble in both buffers
"CC[C@H](C)[C@H](NC(=O)[C@H](CS)NC(=O)[C@H](Cc1c[nH]cn1)NC(=O)[C@H](C)NC(=O)[C@H](C)NC(=O)[C@@H](NC(=O)[C@H](CC(C)C)NC(=O)[C@@H](NC(=O)[C@H](Cc1c[nH]c2ccccc12)NC(=O)[C@H](CCC(N)=O)NC(=O)[C@@H]1CCCN1C(=O)[C@H](Cc1c[nH]cn1)NC(=O)[C@@H](NC(=O)[C@H](CC(C)C)NC(=O)[C@@H](NC(=O)CNC(=O)CNC(=O)[C@H](CS)NC(=O)[C@@H](NC(=O)[C@H](C)NC(=O)[C@H](CCCNC(=N)N)NC(=O)CNC(=O)[C@H](CCCNC(=N)N)NC(=O)[C@H](CO)NC(=O)[C@H](C)NC(=O)[C@@H](NC(=O)[C@H](CC(C)C)NC(C)=O)C(C)C)C(C)C)C(C)C)C(C)C)C(C)C)[C@@H](C)O)C(=O)N[C@@H](CCCNC(=N)N)C(=O)N[C@@H](CC(N)=O)C(=O)N[C@@H](CCCCN)C(=O)N[C@@H](CO)C(=O)N[C@H](C(=O)N[C@H](C(=O)N[C@@H](CC(C)C)C(=O)N[C@@H](CC(C)C)C(=O)NCC(=O)N[C@@H](CCCNC(=N)N)C(=O)N[C@@H](Cc1c[nH]cn1)C(=O)N[C@@H](CO)C(=O)N[C@@H](CC(C)C)C(N)=O)[C@@H](C)CC)C(C)C [PSA 41-80, LVASRGRAVCGGVLVHPQWVLTAAHCIRNKSVILLGRHSL] (Ac-LVASRGRAVCGGVLVHPQWVLTAAHCIRNKSVILLGRHSL-NH2; N-terminus and C-terminus assumed)","Solubility, peptides tested individually",[1],soluble in both buffers
"CSCC[C@H](NC(=O)[C@H](CC(=O)O)NC(=O)[C@H](Cc1ccc(O)cc1)NC(=O)[C@H](CC(C)C)NC(=O)[C@@H]1CCCN1C(=O)[C@H](Cc1c[nH]cn1)NC(=O)[C@@H]1CCCN1C(=O)[C@H](Cc1ccccc1)NC(=O)[C@H](CO)NC(=O)[C@H](Cc1c[nH]cn1)NC(=O)[C@H](CO)NC(=O)[C@@H](NC(=O)[C@H](CCC(N)=O)NC(=O)[C@H](Cc1ccccc1)NC(=O)[C@@H](NC(=O)[C@H](CCC(N)=O)NC(=O)CNC(=O)[C@@H](NC(=O)[C@H](CC(=O)O)NC(=O)[C@H](CCC(=O)O)NC(=O)[C@@H]1CCCN1C(=O)[C@H](Cc1c[nH]cn1)NC(=O)[C@H](Cc1ccccc1)NC(C)=O)[C@@H](C)O)C(C)C)C(C)C)C(=O)N[C@@H](CO)C(=O)N[C@@H](CC(C)C)C(=O)N[C@@H](CC(C)C)C(=O)N[C@@H](CCCCN)C(=O)N[C@@H](CC(N)=O)C(=O)N[C@@H](CCCNC(=N)N)C(=O)N[C@@H](Cc1ccccc1)C(=O)N[C@@H](CC(C)C)C(=O)N[C@@H](CCCNC(=N)N)C(=O)N1CCC[C@H]1C(=O)NCC(=O)N[C@@H](CC(=O)O)C(=O)N[C@@H](CC(=O)O)C(=O)N[C@@H](CO)C(=O)N[C@@H](CO)C(=O)N[C@@H](Cc1c[nH]cn1)C(=O)N[C@@H](CC(=O)O)C(N)=O [PSA 81-120, FHPEDTGQVFQVSHSFPHPLYDMSLLKNRFLRPGDDSSHD] (Ac-FHPEDTGQVFQVSHSFPHPLYDMSLLKNRFLRPGDDSSHD-NH2; N-terminus and C-terminus assumed)","Solubility, peptides tested individually",[1],soluble in both buffers
tetanus toxoid,T-cell proliferation,"[2]; over media, 7 days co-culture of T cells with autologous LCs",no significant increase over media
same,"Measurable proliferation, increased fluorescence",[2]; subjects 2 and 5,≥ 5000
"CC[C@H](C)[C@H](NC(=O)[C@H](Cc1c[nH]c2ccccc12)NC(=O)[C@@H](NC(=O)[C@@H](NC(=O)[C@H](CO)NC(=O)[C@H](CC(C)C)NC(=O)[C@@H](NC(=O)[C@H](CC(C)C)NC(=O)[C@H](Cc1ccccc1)NC(=O)[C@@H](NC(=O)[C@@H](NC(=O)[C@@H]1CCCN1C(=O)[C@@H](NC(=O)[C@H](Cc1c[nH]c2ccccc12)NC(=O)[C@H](CCSC)NC(C)=O)C(C)C)C(C)C)C(C)C)[C@@H](C)O)C(C)C)[C@@H](C)O)C(=O)NCC(=O)N[C@@H](C)C(=O)N[C@@H](C)C(=O)N1CCC[C@H]1C(=O)N[C@@H](CC(C)C)C(=O)N[C@H](C(=O)N[C@@H](CC(C)C)C(=O)N[C@@H](CO)C(=O)N[C@@H](CCCNC(=N)N)C(=O)N[C@H](C(=O)N[C@H](C(=O)NCC(=O)NCC(=O)N[C@@H](Cc1c[nH]c2ccccc12)C(=O)N[C@@H](CCC(=O)O)C(=O)N[C@@H](CS)C(=O)N[C@@H](CCC(=O)O)C(=O)N[C@@H](CCCCN)C(=O)N[C@@H](Cc1c[nH]cn1)C(=O)N[C@@H](CO)C(=O)N[C@@H](CCC(N)=O)C(=O)N1CCC[C@H]1C(=O)N[C@@H](Cc1c[nH]c2ccccc12)C(=O)N[C@@H](CCC(N)=O)C(=O)N[C@H](C(N)=O)C(C)C)C(C)C)[C@@H](C)CC)[C@@H](C)CC [PSA 1-40, MWVPVVFLTLSVTWIGAAPLILSRIVGGWECEKHSQPWQV] (Ac-MWVPVVFLTLSVTWIGAAPLILSRIVGGWECEKHSQPWQV-NH2; N-terminus and C-terminus assumed)",Solubility,"[1]; after dilution from 20 mg/ml to 5 mg/ml, 10 mM succinate, pH5.0 with 5% glycine",remained insoluble
same,Solubility,"[1]; at 20 mg/ml in 10 mM succinate, pH5.0 with 5% glycine",insoluble
same,Solubility,[1]; in the presence of other PSA peptides,solubility was enhanced
same,"Solubility, peptides tested individually",[1],All except PSA 1-40 were soluble in both buffers
same,Solubility,[1]; pH 5,5500 µg/mL
